The record followed here is ChEMBL document CHEMBL1201862, “PubChem BioAssay data set” (2004).

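Compound exposure: 48 hours, 5 concentrations, 96-well plates. At the GI50, growth is halved.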 Activity calls are given as the source filed them. No stated cut-off is given here; in the data, active = GI50 up to about 1.1 µM and inactive = higher.

Test systems include XF498; LXFL 529; DMS-114; HOP-18; DMS-273; KM-20L2; DLD-1; SNB-78; RXF 631.
Holding throughout (assay): inhibition of tumour cell growth, NCI panel, 48 h

As to `Cc1ccc(S(=O)(=O)OC2CC=CC2)cc1`, the GI50 in the assay on XF498, with LXFL 529, with DMS-114, in the assay with HOP-18, in the assay on DMS-273 and in the assay with KM-20L2 was > 100 µM (inactive) throughout. For the same compound, the GI50 in the assay on DLD-1 and in the assay with SNB-78 was > 100 µM (inactive) each time.
Take `CC(C)C1(O)C(c2ccccc2)=C(c2ccccc2)C(c2ccccc2)=C1c1ccccc1`: the GI50 in the assay on XF498 was 2.96 µM (inactive); in the assay with LXFL 529, 5.19 µM (inactive); in the assay on DMS-114, 3.4 µM (inactive); with HOP-18, 10.9 µM (inactive); in the assay on DMS-273, 4.46 µM (inactive); in the assay on KM-20L2, 8.32 µM (inactive). The GI50 in the assay with DLD-1 was 5.87 µM (inactive); with RXF 631 it was 3.58 µM (inactive); in the assay with SNB-78, 11.6 µM (inactive).
Turning to `COc1ccc(/N=c2\ssc3c(=S)ssc23)cc1`, the GI50 is 14.8 µM (inactive) with LXFL 529; 0.959 µM (active) with DMS-114; 26.4 µM (inactive) in the assay on DMS-273; 15.5 µM (inactive) with DLD-1; 34.2 µM (inactive) with SNB-78.
Regarding `CN(c1ccccc1)C(c1ccccc1)C(O)c1ccccc1` (configuration not stated), the GI50 in the assay with LXFL 529 is 21 µM (inactive); with DMS-114, 20.9 µM (inactive); with HOP-18 it was 14.9 µM (inactive); in the assay with DMS-273, 18.7 µM (inactive); in the assay on KM-20L2, 19.4 µM (inactive); in the assay on DLD-1, 23.9 µM (inactive). The GI50 in the assay on RXF 631 was 18.8 µM (inactive); in the assay on SNB-78 it was 22.6 µM (inactive).
Consider `CCN(CC)CCN1C(=O)CC2[C@@H]3CCc4cc(OC)ccc4C3CC[C@]2(C)C1=O` (some centres not stated), for which the GI50 was 16.4 µM (inactive) with LXFL 529, 20.1 µM (inactive) in the assay on KM-20L2 and 28.5 µM (inactive) in the assay on SNB-78.
Regarding `CC(=O)Oc1ccc(C(c2ccc(OC(C)=O)cc2)c2ccccn2)cc1` [BISACODYL], the GI50 in the assay with XF498 is 40.1 µM (inactive); in the assay with LXFL 529 it was 28.8 µM (inactive); with DMS-114, 0.57 µM (active); in the assay on HOP-18, > 47 µM (inactive); with DMS-273, > 100 µM (inactive); in the assay on KM-20L2, 54.2 µM (inactive). Further, the GI50 was 7.11 µM (inactive) in the assay with DLD-1 and > 100 µM (inactive) with RXF 631.
Regarding `CCOC(=O)C(C)(NC(=O)c1ccc(NCc2ccc3nc(NC(=O)c4ccccc4)nc(NC(=O)c4ccccc4)c3c2)cc1)C(=O)OCC`, the GI50 in the assay with DMS-114 was 16.8 µM (inactive); in the assay with HOP-18 it was 37.8 µM (inactive); with DMS-273, 9.23 µM (inactive); in the assay on KM-20L2, 18.4 µM (inactive); in the assay with DLD-1 it was 15.6 µM (inactive); in the assay with RXF 631, 12.2 µM (inactive). Also, the GI50 in the assay on SNB-78 is 9.23 µM (inactive).
`COc1ccc(OCC(=O)O)c(C(=O)CCC(=O)O)c1`: the GI50 in the assay with XF498, in the assay with LXFL 529, with DMS-114, with DMS-273, in the assay with DLD-1 and with RXF 631 was > 100 µM (inactive) throughout. In addition, the GI50 in the assay with SNB-78 was > 100 µM (inactive).
As for `CC(C)c1cc2c(O)c(c1)Cc1cc(C(C)C)cc(c1O)Cc1cc(C(C)C)cc(c1O)Cc1cc(C(C)C)cc(c1O)C2`, the GI50 with XF498, in the assay with DMS-114, in the assay on HOP-18, with DMS-273, with KM-20L2 and in the assay with DLD-1 was > 100 µM (inactive) in each case. The GI50 with SNB-78 was > 100 µM (inactive).
Turning to `O=C1Nc2ccccc2C1(O)C/C(=N/O)c1ccc2ccccc2c1` (configuration not stated), the GI50 with XF498 was 93.3 µM (inactive); in the assay with LXFL 529 it was 91.2 µM (inactive); with DMS-114 it was 64.6 µM (inactive); in the assay with HOP-18 it was > 100 µM (inactive); with KM-20L2, > 100 µM (inactive); in the assay with DLD-1, > 100 µM (inactive). For the same compound, the GI50 in the assay with RXF 631 is 29.7 µM (inactive); in the assay with SNB-78, 60.1 µM (inactive).
As to `NCCCC(N)(C(=O)O)C(F)F` (configuration not stated) [EFLORNITHINE], the GI50 with LXFL 529 was > 100 µM (inactive); with DMS-114 it was > 5000 µM (inactive); in the assay with HOP-18, > 50 µM (inactive); with DMS-273 it was 1220 µM (inactive); in the assay on KM-20L2, > 5000 µM (inactive); in the assay with DLD-1, > 3160 µM (inactive). Further, the GI50 with RXF 631 is > 100 µM (inactive); in the assay on SNB-78, > 5000 µM (inactive).
In the case of `CC(O)CN1C(=O)NC(Cc2ccccc2)C1=O` (configuration not stated), the GI50 with XF498, in the assay on LXFL 529, in the assay on DMS-114, in the assay with HOP-18, in the assay with DMS-273 and in the assay with KM-20L2 was > 100 µM (inactive) throughout. The GI50 with DLD-1 and with SNB-78 was > 100 µM (inactive) throughout.
For the compound `COc1cc(C2C(C(=O)O)=C(C)Oc3cc4c(cc32)OCO4)cc(OC)c1OC` (configuration not stated), the GI50 is 42.2 µM (inactive) with XF498; 16.2 µM (inactive) in the assay with DMS-114; 28.8 µM (inactive) in the assay on HOP-18; 13.7 µM (inactive) in the assay on DMS-273; 32.4 µM (inactive) with KM-20L2; 29 µM (inactive) in the assay with DLD-1. Moreover, the GI50 in the assay with RXF 631 is 36.1 µM (inactive); in the assay with SNB-78, 50.4 µM (inactive).
`COc1ccc(/C=C2/C(=O)N(C(=O)c3ccc(Cl)cc3)N=C2C)cc1OC`: the GI50 in the assay on XF498, in the assay on LXFL 529, in the assay with DMS-114, in the assay with KM-20L2, in the assay on DLD-1 and with SNB-78 was > 100 µM (inactive) in each case.
In the case of `O=C(CNc1ccc2c(=S)c3ccccc3[nH]c2c1)Nc1ccccc1-c1ccccc1NC(=O)CNc1ccc2c(=S)c3ccccc3[nH]c2c1`, the GI50 in the assay on XF498 was 19.1 µM (inactive); with LXFL 529, 7.45 µM (inactive); in the assay with DMS-114, 17.1 µM (inactive); with HOP-18 it was 16.1 µM (inactive); in the assay with DMS-273, > 46 µM (inactive); in the assay with KM-20L2, 19.7 µM (inactive). The GI50 is 11 µM (inactive) in the assay on DLD-1 and 32.9 µM (inactive) with SNB-78.
As to `OCCCOC(c1ccccc1)(c1ccccc1)c1ccccc1`, the GI50 is > 100 µM (inactive) with XF498; > 100 µM (inactive) in the assay on LXFL 529; > 100 µM (inactive) in the assay with DMS-114; > 100 µM (inactive) with DMS-273; > 100 µM (inactive) in the assay on KM-20L2; 60.1 µM (inactive) in the assay on DLD-1. The GI50 was > 100 µM (inactive) in the assay on RXF 631 and 38.9 µM (inactive) in the assay with SNB-78.
For the compound `COc1cccc(SSc2cccc(OC)c2C(=O)O)c1C(=O)O`, the GI50 in the assay with XF498, in the assay on LXFL 529, in the assay with DMS-114, in the assay with HOP-18, with DMS-273 and with KM-20L2 was > 100 µM (inactive) each time. The GI50 in the assay on DLD-1, in the assay on RXF 631 and in the assay on SNB-78 was > 100 µM (inactive) in each case.
For `COc1ccc(S(=O)(=O)N(C)CC(=O)O)cc1`, the GI50 with XF498, in the assay with LXFL 529, in the assay with HOP-18, in the assay on DMS-273, in the assay on KM-20L2 and with DLD-1 was > 100 µM (inactive) each time. In addition, the GI50 with RXF 631 was > 100 µM (inactive).
As for `O=CN/C=C/c1cc(O)ccc1O` [ERBSTATIN], the GI50 was 19.8 µM (inactive) in the assay with XF498; 11.6 µM (inactive) with LXFL 529; 17.6 µM (inactive) with DMS-114; > 40.6 µM (inactive) with HOP-18; 77.1 µM (inactive) in the assay on DMS-273; 52.2 µM (inactive) with KM-20L2. For the same compound, the GI50 in the assay with DLD-1 is 16 µM (inactive); in the assay on SNB-78 it was 19 µM (inactive).
Consider `CC(=O)Nc1cc(N(CCOS(C)(=O)=O)CCOS(C)(=O)=O)ccc1N=O`, for which the GI50 in the assay with XF498, with LXFL 529, in the assay with DMS-114, in the assay on DMS-273, in the assay on KM-20L2 and with DLD-1 was > 100 µM (inactive) each time.
For the compound `COc1ccccc1/C=N/N=C(\N)NO`, the GI50 in the assay on LXFL 529 was 3.3 µM (inactive); in the assay with DMS-114, 5.78 µM (inactive); with HOP-18, 48.9 µM (inactive); in the assay on DLD-1 it was 23.8 µM (inactive); in the assay on SNB-78, > 100 µM (inactive).
Turning to `CCN(CC)CCNc1c2ccccc2nc2cccc([N+](=O)[O-])c12`, the GI50 with XF498 is 0.0193 µM (active); with LXFL 529, 0.0211 µM (active); in the assay with DMS-114 it was 0.0241 µM (active); with DMS-273, 0.0358 µM (active); in the assay on KM-20L2, 0.0303 µM (active); with DLD-1 it was 0.0225 µM (active). In addition, the GI50 was 0.0317 µM (active) in the assay on RXF 631 and 0.0993 µM (active) in the assay with SNB-78.
As for `CC(=O)NNc1nc(C)c(C(=O)NNC(=O)C(=O)Nc2c([N+](=O)[O-])ccc(C)c2C)s1`, the GI50 in the assay on XF498 is > 100 µM (inactive); in the assay on LXFL 529, 65.2 µM (inactive); with DMS-114, > 100 µM (inactive); in the assay on DMS-273, > 100 µM (inactive); with KM-20L2, > 100 µM (inactive); with DLD-1, > 100 µM (inactive). In the assay with SNB-78, the GI50 is > 100 µM (inactive).
Regarding `COC(=O)C(=O)C(C(=O)OC)C(=O)C(=O)Nc1c(C)cccc1C` (configuration not stated), the GI50 in the assay on XF498, in the assay with LXFL 529, in the assay with DMS-114, in the assay with HOP-18, in the assay on KM-20L2 and in the assay on DLD-1 was > 100 µM (inactive) each time. In addition, the GI50 in the assay with RXF 631 and in the assay with SNB-78 was > 100 µM (inactive) in each case.
For the compound `Cc1cc2c(c(C(N)=O)c1C)-c1ccccc1C2=O`, the GI50 in the assay on LXFL 529, in the assay on DMS-114, in the assay on HOP-18, with DMS-273, in the assay on KM-20L2 and with DLD-1 was > 100 µM (inactive) throughout. Also, the GI50 with RXF 631 and in the assay on SNB-78 was > 100 µM (inactive) in each case.
